Entries after “also recorded” stand apart in the source; their conditions may differ.
Legend:
SK-OV-3 cells = experiment: SK-OV-3 cell proliferation assay; format: cell-based; settings: Homo sapiens; SK-OV-3 proliferation, 72 hours, Cell Titer Glo
Description: SK-OV-3 Cell Proliferation Assay
(§1) For the SK-OV-3 proliferation Assay, 5000 cells per well were plated in Growth Media (DMEM, 10% FBS, 1% 1-glutamine, 1% penicillin/streptomycin) in 96 well plates. The following day, compounds were added to duplicate wells at concentrations of 10 uM and 3-fold dilutions down to 40 nM. The plates were returned to the incubator for 72 hours and then the assays were developed using Cell Titer Glo (Promega, Madison, Wis.) according to manufacturer's instructions.

PI3Kγ (p120γ) = target: T1, PI3Kγ (p120γ) (Homo sapiens, UniProt P48736); experiment: HTRF assay, potency against active PI3Kγ; format: biochemical; settings: [ATP]=50 μM, [di-C8-PIP2]=10 μM, 30 min pre-incubation, read-out: PI3Kγ Inhibition
T1 construct: purchased BPS Bioscience (San Diego, Calif.) or Millipore (Billerica, Mass.)
In short: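 End-point competition HTRF: enzyme (p110β/p85α 0.75 nM; p120γ 2-2.5 nM) with 10 μM di-C8-PIP2 pre-incubated 30 min at 25° C with compound, then 50 μM ATP added for 30-60 min at 25° C. Stopped, detected after 1 and 18 h; IC50 from variable-slope fit.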

PI3Kα = PI3Kα (Homo sapiens, UniProt P42336); experiment: Mass spectrometry of intact PI3Kα (Johns Hopkins), 3 hr incubation; format: binding; parameters: Johns Hopkins; settings: 10× fold excess of compound, MALDI
Description: Mass Spectrometry for PI3K
Intact PI3Kα (Johns Hopkins) was incubated for 3 hr at a 10× fold excess of II-a-45 or II-a-49 to protein. Aliquots (3 μL) of the samples were diluted with 10 μL of 0.1% TFA prior to micro C4 ZipTipping directly onto the MALDI target using Sinapinic acid as the desorption matrix (10 mg/ml in 0.1% TFA:Acetonitrile 50:50).

PI3Kα (p110α/p85α) = target: T2, PI3Kα (p110α/p85α) (Homo sapiens, UniProt P42336); experiment: HTRF assay, potency against active PI3Kα; format: biochemical; settings: HTRF; [ATP]=50 μM, [di-C8-PIP2]=10 μM; 30 min pre-incubation; read-out: PI3Kα Inhibition
T2 construct: purchased BPS Bioscience (San Diego, Calif.) or Millipore (Billerica, Mass.)
In short: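 IC50 came from a variable-slope fit of % inhibition, calculated from the HTRF emission ratio relative to wells with and without enzyme. Reactions with the active enzyme complex ran 30-60 minutes at 25 °C after ATP addition before stop and detection reagents.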

PI3K = PI3K HCT116 cellular assay (Western blot); format: cell-based; settings: Homo sapiens, HCT-116, HCT116 colon cancer cells, 1 hour incubation, read-out: PI3K Inhibition
Description: PI3K HCT116 Cellular Assay
Selected compounds were assayed in HCT116 colon cancer cells. […] Cells were then washed with PBS, lysed and the protein lysates were then recovered and analyzed by Western blot.

HCT116 cells = experiment: HCT-116 cell proliferation assay; format: cell-based; settings: Homo sapiens, 72 hours, Cell Titer Glo
Description: HCT-116 Cell Proliferation Assay
as §1, with “HCT116 Proliferation” for “SK-OV-3 proliferation”, “3000” for “5000”

PI3Kβ (p110β/p85α) = target: T3, PI3Kβ (p110β/p85α) (Homo sapiens, UniProt P42338); experiment: HTRF assay, potency against active PI3Kβ; format: biochemical; settings: [ATP]=50 μM, [di-C8-PIP2]=10 μM, 30 min pre-incubation, read-out: PI3Kβ Inhibition
T3 construct: purchased BPS Bioscience (San Diego, Calif.) or Millipore (Billerica, Mass.)
Description: Homogeneous Time Resolved Fluorescence (HTRF) Assay Protocol for Potency Assessment Against the Active Forms of PI3Kα, PI3Kβ, and PI3Kγ
The mechanics of the assay platform are best described by the vendor (Millipore, Billerica, Mass.) on their website at the following URL: www.millipore.com/coa/tech1/74jt4z.
Briefly, Stop solution (Stop A, #33-007 and Stop B, #33-009; 3:1 ratio) and Detection Mix (from DMC, #33-015 with DMA, #33-011 and DMB, #33-013; 18:1:1 ratio) were prepared as recommended by the manufacturer about 2 hrs prior to use. […] Lipid kinase reactions were started with the addition of 5 μL of ATP solution, mixed for 15 sec on a rotary plate shaker and incubated for 30-60 minutes at 25° C. Next, reactions were stopped with a 5 μL addition of Stop solution immediately followed by a 5 μL volume of Detection Mix. […] At the conclusion of each assay, the HTRF ratio from fluorescence emission values for each well was calculated and % Inhibition determined from averaged controls wells (+/−PI3K enzyme). % Inhibition values for each compound were then plotted against inhibitor concentration to estimate IC50 from log [Inhibitor] vs Response, Variable Slope model in GraphPad Prism from GraphPad Software (San Diego, Calif.).

SKOV3 cells = experiment: GI50 determinations in SKOV3 cells; format: cell-based; settings: Homo sapiens, SK-OV-3; SKOV3 cells, 96 hours, Cell Titer Glo
Description: GI50 Determinations in SKOV3 Cells
A standard curve ranging from 10,000 to 50,000 cells was set up in a separate plate and allowed to adhere to the plate for 4-6 hours, at which time the plate was developed using Cell Titer-Glow (Promega, Madison, Wis.) according to manufacturer's instructions.
The next morning, 3-fold compound dilutions ranging from 10,000 nM to 40 nM were prepared in Proliferation Media containing 1% DMSO. 20 ul of each dilution was added to the SKOV3 cells plated the previous day resulting in a dose response curve from 1000 nM to 4 nM. The cells were incubated for 96 hours and then developed with Cell Titer Glo.
The cell numbers at the end of the assay were determined using the standard curve generated at the start of the assay. Growth inhibition was calculated using the following formulas and GI50s were determined by plotting the % growth inhibition vs. Log compound concentration in GraphPad.
%growth=100×(T−T0)/(C−T0)
T=Cell Number at end of assay T0=Cell Number at start of assay (5000) C=Number of cells in DMSO controls at end of assay
%growth inhibition=100−%growth

Phospho-Akt(Ser473) [1] = experiment: Dose response in SKOV3 cells as determined by in-cell Western; format: cell-based; settings: Homo sapiens, SK-OV-3; SKOV3 cells, 1 hr; read-out: pAKT Inhibition in cell Western
In short: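 SKOV3 cells treated with compound for 1 hr, then formaldehyde-fixed, permeabilised and stained overnight for phospho-Akt(Ser473) with anti-tubulin as a reference. Infrared secondary antibodies read at 680 and 800 nm channels by in-cell Western imaging.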

Phospho-Akt(Ser473) [2] = experiment: Dose response in SKOV3 cells as determined by Western blot; format: cell-based; settings: Homo sapiens, SK-OV-3, 1 hr, Phospho-Akt normalized to total Akt, read-out: Immunoblot
Description: Dose Response in SKOV3 Cells as Determined by Western Blot
SKOV3 cells were plated in SKOV3 Growth Media (DMEM supplemented with 10% FBS and pen/strep) at a density of 4×10^5 cells per well of 12 well plates. Twenty four hours later the media was removed and replaced with 1 ml media containing test compound and 0.1% DMSO and cells were returned to the incubator for 1 hr. At the end of the hour, the media was removed and the cells were washed with PBS, then lysed and scraped into 30 ul of Cell Extraction Buffer (Biosource, Camarillo, Calif.) plus Complete Protease Inhibitor and PhosStop Phosphatase Inhibitor (Roche, Indianapolis, Ind.).
Cell debris was spun down at 13,000×g for 1 minute and the supernatant was taken as the cell lysate. Protein concentration of the lysate was determined by BCA Assay (Pierce Biotechnology, Rockford, Ill.) and 50 ug of protein was loaded per well onto a NuPAGE Novex 4-12% Bis-Tris gel (Invitrogen, Carlsbad, Calif.) then transferred to Immobilon PVDF-FL (Millipore, Billerica, Mass.).
The blot was blocked in Odyssey Blocking Buffer (Li-Cor Biosciences, Lincoln, Nebr.) for 1 hr then incubated overnight at 4° C. with mouse anti-Akt (#2920) and rabbit anti-Phospho-Akt(Ser473) (#9271)(Cell Signaling Technology, Boston, Mass.) antibodies, both diluted 1:1000 in PBS/Odyssey Buffer (1:1)+0.1% Tween-20. The blots were washed 3 times 5 minutes in PBS+0.2% Tween-20 then incubated for 1 hr at room temperature with fluorescently labeled secondary antibodies (Li-Cor) diluted 1:10000 in PBS/Odyssey Buffer (1:1)+0.1% Tween-20.
The blots were washed 2 times for 5 minutes in PBS+0.2% Tween-20, once in distilled water, then scanned on an Odyssey machine (Li-Cor). Band intensity was determined using the Odyssey software and Phopho-Akt signal was normalized to total Akt within samples, then expressed as a percentage of the untreated Phospho-Akt signal.

T3 sequence (P42338 whole entry): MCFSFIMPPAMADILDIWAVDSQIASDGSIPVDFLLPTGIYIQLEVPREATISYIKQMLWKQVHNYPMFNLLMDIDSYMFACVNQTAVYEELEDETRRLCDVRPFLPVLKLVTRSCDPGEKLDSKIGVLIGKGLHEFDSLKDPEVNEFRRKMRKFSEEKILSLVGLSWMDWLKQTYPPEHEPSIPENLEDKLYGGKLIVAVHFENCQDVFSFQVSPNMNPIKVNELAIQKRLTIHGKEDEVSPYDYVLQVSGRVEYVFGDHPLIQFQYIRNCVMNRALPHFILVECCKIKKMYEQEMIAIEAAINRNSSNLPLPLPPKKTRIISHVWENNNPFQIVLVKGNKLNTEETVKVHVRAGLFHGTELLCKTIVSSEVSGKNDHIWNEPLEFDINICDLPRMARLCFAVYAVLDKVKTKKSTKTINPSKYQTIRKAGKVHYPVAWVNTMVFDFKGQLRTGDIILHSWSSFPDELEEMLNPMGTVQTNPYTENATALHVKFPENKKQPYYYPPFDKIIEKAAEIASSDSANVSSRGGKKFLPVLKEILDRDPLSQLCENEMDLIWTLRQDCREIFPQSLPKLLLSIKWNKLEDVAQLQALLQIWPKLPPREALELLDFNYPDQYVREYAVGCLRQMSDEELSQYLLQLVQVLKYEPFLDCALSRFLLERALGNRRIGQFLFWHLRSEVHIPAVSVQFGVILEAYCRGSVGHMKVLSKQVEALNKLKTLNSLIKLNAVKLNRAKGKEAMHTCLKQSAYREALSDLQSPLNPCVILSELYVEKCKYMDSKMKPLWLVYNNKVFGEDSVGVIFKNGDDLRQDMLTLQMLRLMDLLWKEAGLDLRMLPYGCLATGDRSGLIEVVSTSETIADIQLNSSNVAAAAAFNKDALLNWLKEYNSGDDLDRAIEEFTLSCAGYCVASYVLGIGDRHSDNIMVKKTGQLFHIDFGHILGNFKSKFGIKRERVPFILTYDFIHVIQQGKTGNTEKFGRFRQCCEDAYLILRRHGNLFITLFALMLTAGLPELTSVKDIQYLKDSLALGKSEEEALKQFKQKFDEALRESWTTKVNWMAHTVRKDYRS
T3 sequence (P27986 whole entry partner): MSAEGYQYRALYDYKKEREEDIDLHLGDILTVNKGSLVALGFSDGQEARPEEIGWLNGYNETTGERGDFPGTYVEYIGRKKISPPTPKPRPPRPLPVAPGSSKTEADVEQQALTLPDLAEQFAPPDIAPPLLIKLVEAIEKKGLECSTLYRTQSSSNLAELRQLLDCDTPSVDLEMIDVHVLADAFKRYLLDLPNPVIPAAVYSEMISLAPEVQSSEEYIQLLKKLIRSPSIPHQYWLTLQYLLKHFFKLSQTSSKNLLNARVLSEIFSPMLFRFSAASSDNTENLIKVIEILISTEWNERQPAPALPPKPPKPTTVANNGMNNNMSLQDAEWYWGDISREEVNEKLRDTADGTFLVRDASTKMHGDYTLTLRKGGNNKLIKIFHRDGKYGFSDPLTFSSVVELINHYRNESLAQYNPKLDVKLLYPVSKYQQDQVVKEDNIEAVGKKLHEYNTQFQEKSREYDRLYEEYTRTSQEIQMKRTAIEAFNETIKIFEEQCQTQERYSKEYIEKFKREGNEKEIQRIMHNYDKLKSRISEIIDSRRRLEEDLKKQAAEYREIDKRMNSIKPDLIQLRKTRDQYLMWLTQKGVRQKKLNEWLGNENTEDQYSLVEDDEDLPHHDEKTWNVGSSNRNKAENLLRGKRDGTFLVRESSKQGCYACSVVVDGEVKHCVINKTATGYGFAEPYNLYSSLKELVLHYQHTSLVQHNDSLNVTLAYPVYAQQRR
T2 sequence (P42336 whole entry): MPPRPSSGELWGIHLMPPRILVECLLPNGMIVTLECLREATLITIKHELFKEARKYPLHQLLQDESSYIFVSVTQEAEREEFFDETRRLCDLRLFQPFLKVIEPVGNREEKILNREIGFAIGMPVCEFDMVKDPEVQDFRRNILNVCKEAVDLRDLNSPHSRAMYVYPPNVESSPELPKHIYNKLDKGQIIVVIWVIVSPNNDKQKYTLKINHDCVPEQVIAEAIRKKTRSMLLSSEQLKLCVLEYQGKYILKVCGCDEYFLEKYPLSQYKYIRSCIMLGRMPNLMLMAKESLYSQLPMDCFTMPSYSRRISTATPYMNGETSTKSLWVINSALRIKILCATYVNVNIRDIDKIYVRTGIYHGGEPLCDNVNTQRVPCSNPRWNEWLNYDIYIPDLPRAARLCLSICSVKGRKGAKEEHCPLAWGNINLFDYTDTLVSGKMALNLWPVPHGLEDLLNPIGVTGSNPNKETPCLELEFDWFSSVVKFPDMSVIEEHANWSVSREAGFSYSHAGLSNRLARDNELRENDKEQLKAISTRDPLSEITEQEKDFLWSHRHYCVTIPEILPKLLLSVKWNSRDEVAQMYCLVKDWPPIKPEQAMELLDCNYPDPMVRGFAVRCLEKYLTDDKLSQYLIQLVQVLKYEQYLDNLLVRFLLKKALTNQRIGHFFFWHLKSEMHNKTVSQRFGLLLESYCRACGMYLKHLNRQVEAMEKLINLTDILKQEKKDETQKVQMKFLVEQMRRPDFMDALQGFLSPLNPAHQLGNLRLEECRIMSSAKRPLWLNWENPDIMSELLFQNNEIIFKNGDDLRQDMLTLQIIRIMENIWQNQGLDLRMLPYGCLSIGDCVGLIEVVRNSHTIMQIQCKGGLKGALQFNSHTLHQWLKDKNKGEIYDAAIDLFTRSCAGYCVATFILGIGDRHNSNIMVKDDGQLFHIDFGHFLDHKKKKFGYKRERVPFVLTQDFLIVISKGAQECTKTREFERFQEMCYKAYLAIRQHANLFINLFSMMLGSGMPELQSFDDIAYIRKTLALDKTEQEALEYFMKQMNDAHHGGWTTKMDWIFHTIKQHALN
T2 sequence (P27986 whole entry partner): as the sequence (P27986 whole entry partner) above
Chain of PI3Kα (P42336 whole entry): as the sequence (P42336 whole entry) above
Chain of PI3Kα (P27986 322-600 partner limits assumed): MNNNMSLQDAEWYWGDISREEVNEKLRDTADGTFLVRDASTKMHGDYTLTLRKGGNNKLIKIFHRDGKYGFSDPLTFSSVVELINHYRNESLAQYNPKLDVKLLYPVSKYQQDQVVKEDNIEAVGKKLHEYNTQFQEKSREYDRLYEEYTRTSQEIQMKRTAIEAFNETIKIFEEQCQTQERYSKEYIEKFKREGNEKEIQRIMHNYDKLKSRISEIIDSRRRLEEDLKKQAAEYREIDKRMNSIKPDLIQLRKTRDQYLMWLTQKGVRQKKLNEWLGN
T1 sequence (P48736 whole entry): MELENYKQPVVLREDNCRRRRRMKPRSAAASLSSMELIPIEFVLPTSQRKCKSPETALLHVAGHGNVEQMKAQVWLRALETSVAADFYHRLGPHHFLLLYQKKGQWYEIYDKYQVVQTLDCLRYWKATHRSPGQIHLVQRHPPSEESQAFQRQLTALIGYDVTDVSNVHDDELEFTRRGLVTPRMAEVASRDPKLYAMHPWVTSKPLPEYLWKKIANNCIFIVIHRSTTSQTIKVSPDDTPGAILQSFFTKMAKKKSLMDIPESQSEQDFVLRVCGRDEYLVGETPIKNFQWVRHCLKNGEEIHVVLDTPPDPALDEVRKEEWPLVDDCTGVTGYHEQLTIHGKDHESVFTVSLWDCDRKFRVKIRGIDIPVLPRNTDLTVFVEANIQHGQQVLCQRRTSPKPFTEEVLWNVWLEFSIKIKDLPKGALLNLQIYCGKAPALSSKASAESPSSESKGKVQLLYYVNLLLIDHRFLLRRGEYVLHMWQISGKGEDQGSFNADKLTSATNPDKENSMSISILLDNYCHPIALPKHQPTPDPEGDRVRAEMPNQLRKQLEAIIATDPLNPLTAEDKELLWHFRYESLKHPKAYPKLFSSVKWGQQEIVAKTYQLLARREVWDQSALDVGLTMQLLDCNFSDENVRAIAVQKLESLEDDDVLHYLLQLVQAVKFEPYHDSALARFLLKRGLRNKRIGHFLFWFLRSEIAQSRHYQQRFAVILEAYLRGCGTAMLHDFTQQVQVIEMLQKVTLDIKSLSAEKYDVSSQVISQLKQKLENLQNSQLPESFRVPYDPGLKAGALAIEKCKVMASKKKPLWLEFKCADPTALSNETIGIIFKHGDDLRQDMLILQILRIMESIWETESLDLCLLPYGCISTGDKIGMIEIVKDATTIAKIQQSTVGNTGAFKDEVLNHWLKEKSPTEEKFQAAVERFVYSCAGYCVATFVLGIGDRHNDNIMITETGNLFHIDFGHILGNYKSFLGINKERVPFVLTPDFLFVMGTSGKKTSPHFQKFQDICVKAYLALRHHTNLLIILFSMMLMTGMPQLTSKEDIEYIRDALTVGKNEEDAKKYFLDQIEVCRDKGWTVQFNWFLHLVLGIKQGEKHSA

Compound | EC50 (SK-OV-3 cells) [nM] | IC50 (PI3Kγ (p120γ)) [nM] | covalent modification of PI3Kα (PI3Kα) | IC50 (PI3Kα (p110α/p85α)) [nM] | EC50 (PI3K) [nM] | EC50 (HCT116 cells) [nM] | IC50 (PI3Kβ (p110β/p85α)) [nM] | GI50 (SKOV3 cells) [nM] | positive mass shift of PI3Kα (PI3Kα) [Da] | EC50 (Phospho-Akt(Ser473) [1]) [nM] | EC50 (Phospho-Akt(Ser473) [2]) [nM]
CC/C=C/C(=O)CCC(=O)N1CCN(Cc2cc3nc(-c4cccc5[nH]ncc45)nc(N4CCOCC4)c3s2)CC1 [II-a-53, (E)-1-(4-((2-(1H-indazol-4-yl)-4-morpholinothieno[3,2-d]pyrimidin-6-yl)methyl)piperazin-1-yl)oct-5-ene-1,4-dione] | 100 to 1000 | > 1000 | completely modify | < 10 | 20 to 100 | 100 to 1000 |  |  |  |  | 
C/C=C/C(=O)CCC(=O)N1CCN(Cc2cc3nc(-c4cccc(O)c4)nc(N4CCOCC4)c3s2)CC1 [II-a-50, (E)-1-(4-((2-(3-hydroxyphenyl)-4-morpholinothieno[3,2-d]pyrimidin-6-yl)methyl)piperazin-1-yl)hept-5-ene-1,4-dione] | 100 to 1000 | > 1000 | completely modify | < 10 | < 20 | 100 to 1000 |  |  |  |  | 
O=C(/C=C/C1CC1)CCC(=O)N1CCN(Cc2cc3nc(-c4cccc5[nH]ncc45)nc(N4CCOCC4)c3s2)CC1 [II-a-55, (E)-1-(4-((2-(1H-indazol-4-yl)-4-morpholinothieno[3,2-d]pyrimidin-6-yl)methyl)piperazin-1-yl)-6-cyclopropylhex-5-ene-1,4-dione] | 1000 to 10000 | > 1000 | completely modify | 10 to 100 | 20 to 100 | 100 to 1000 | > 1000 |  |  |  | 
C=C(C)C(=O)CCC(=O)N1CCN(Cc2cc3nc(-c4cccc(O)c4)nc(N4CCOCC4)c3s2)CC1 [II-a-49, 1-(4-((2-(3-hydroxyphenyl)-4-morpholinothieno[3,2-d]pyrimidin-6-yl)methyl)piperazin-1-yl)-5-methylhex-5-ene-1,4-dione] | 100 to 1000 | > 1000 | complete modification; also recorded: covalent modification | 10 to 100 | < 20 | 100 to 1000 |  |  | 616 |  | 
C=C(C)C(=O)CCC(=O)N1CCN(Cc2cc3nc(-c4cccc5[nH]ncc45)nc(N4CCOCC4)c3s2)CC1 [II-a-43, 1-(4-((2-(1H-indazol-4-yl)-4-morpholinothieno[3,2-d]pyrimidin-6-yl)methyl)piperazin-1-yl)-5-methylhex-5-ene-1,4-dione] | 100 to 1000 | > 1000 | completely modify | 10 to 100 | < 20 | 100 to 1000 | > 1000 |  |  |  | 

Further lines, with some results ahead:

EC50 (SK-OV-3 cells) [nM] | IC50 (PI3Kγ (p120γ)) [nM] | covalent modification of PI3Kα (PI3Kα) | IC50 (PI3Kα (p110α/p85α)) [nM] | EC50 (PI3K) [nM] | EC50 (HCT116 cells) [nM] | IC50 (PI3Kβ (p110β/p85α)) [nM] | GI50 (SKOV3 cells) [nM] | positive mass shift of PI3Kα (PI3Kα) [Da] | EC50 (Phospho-Akt(Ser473) [1]) [nM] | Compound | EC50 (Phospho-Akt(Ser473) [2]) [nM]
 |  |  | 100 to 1000 |  |  | > 1000 | 10 to 100 |  |  | CC(C)=CC(=O)CCC(=O)N1CCN(C(=O)c2cc3nc(-c4cccc5[nH]ncc45)nc(N4CCOCC4)c3s2)CC1 [II-a-160, 1-(4-(2-(1H-indazol-4-yl)-4-morpholinothieno[3,2-d]pyrimidine-6-carbonyl)piperazin-1-yl)-6-methylhept-5-ene-1,4-dione] | 
 |  |  | 10 to 100 |  |  | > 1000 |  |  | 10 to 100 | O=C(/C=C/c1ccccc1)CCC(=O)N1CCN(Cc2cc3nc(-c4cccc5[nH]ncc45)nc(N4CCOCC4)c3s2)CC1 [II-a-116, (E)-1-(4-((2-(1H-indazol-4-yl)-4-morpholinothieno[3,2-d]pyrimidin-6-yl)methyl)piperazin-1-yl)-6-phenylhex-5-ene-1,4-dione] | 10 to 100
 |  |  | 10 to 100 |  |  | 100 to 1000 |  |  | ≤ 10 | C/C=C/C(=O)CCC(=O)N1CCN(Cc2cc3nc(-c4cnc(N)nc4)nc(N4CCOCC4)c3s2)CC1 [II-a-112, (E)-1-(4-((2-(2-aminopyrimidin-5-yl)-4-morpholinothieno[3,2-d]pyrimidin-6-yl)methyl)piperazin-1-yl)hept-5-ene-1,4-dione] | 10 to 100

— US20110230476A1, “PI3 KINASE INHIBITORS AND USES THEREOF” (AVILA THERAPEUTICS, INC., priority 2009, published 2011)
